Laboratory results as given in patent US20060293351A1, “Promotion of wound healing” (priority 1999, published 2006).
Read-outs that look alike come from different tables or passages of the source.

Tests used:
skin wound = test: Wound strength (bursting point, Instron tensiometer); format: in vivo, rats; settings: irradiated or not; one or six injections
Description: Wound strength was assessed by preparing rats substantially as described above, except that one group of rats (not irradiated) only received one injection of Halofuginone after wounding. The strength of wounds was measured as follows. First, a square of skin which was approximately 20 mm long and 16 mm wide, and which included the main part of the wound, was excised from sacrificed rats. Next, the skin was cut, perpendicular to the wound, to yield 7 strips of skin, each of which was 2 mm wide. The skin strips were secured between paper reinforcement frames and loaded on an Instron tensiometer for stretching at a constant rate of 25 mm/min. The bursting point was then recorded.

[1] = system: T50 bladder carcinoma bearing mice; test: Wound healing in mice implanted with T50 bladder carcinoma tumors; format: in vivo, C3H mice; settings: diet containing 10 mg/kg or 5 mg/kg, 3 days prior to and 2 weeks after cell injection
Description: Similar visual results were obtained with mice implanted with T50 bladder carcinoma tumors (FIG. 4). C3H mice were divided into two groups of 6 mice each. The experimental group received a diet containing either 10 mg/kg or 5 mg/kg of Halofuginone 3 days prior to the injection of T50 bladder carcinoma cells and during 2 weeks after. […] The right side received 0.4*10^5 cells, and the left side received 2*10^5 cells. The experiment ended at day 17. FIG. 4 is a photograph of representative bladder carcinoma bearing mice which were untreated (top) or treated (bottom) with Halofuginone. […] Halofuginone was clearly able to promote wound healing in mice implanted with bladder carcinoma tumors.

urethral strictures = format: in vivo, rats
Description: Tile effect of Halofuginone in post-trauma stricture formation in rats was studied. Briefly, urethral strictures were induced by catheterization and application of an electrical current to the urethra of rats. The rats were divided into four groups: untreated rats as controls (FIG. 5A); rats treated with Halofuginone but not with coagulation current (FIG. 5B); rats treated with coagulation current alone (FIG. 5C); and rats treated with both Halofuginone and coagulation current (FIG. 5D-5F).
The experiments were performed as follows. First, urethral catherization was performed on anesthetized rats with a 23 G Quik-Cath (Baxter, Ireland) sheath. A spinal needle was inserted into the sheath, and was used to apply a coagulation current at a level of 10 W to the outer end of the needle for 1 second at three locations, 8, 10 and 12 mm from the meatus, in order to produce urethral strictures. Halofuginone was given for 7 days starting at the day of stricture formation, either orally at concentrations of 1 ppm and 5 ppm in the diet, or by injection of 0.03% Halofuginone dissolved in 2% lignocaine directly into the urethra once a day. Urethral gross morphology was evaluated by urethrogram after injecting contrast material (Telebrix Megalumine 300 mg/ml. Laboratorie, Guerbet, Aulnay Sous Bios, France) into the anesthetized rat through a 23 G Quik-Cath sheath, under fluoroscopy 3 weeks after stricture formation.

collagen = test: Collagen content at the stricture site (Sirius red staining); format: in vivo, rats
Description: The experiments were performed as follows. First, urethral catherization was performed on tile rats with a 23 G Quik-Cath (Baxter, Ireland) sheath. A spinal needle was inserted into the sheath, and was used to apply a coagulation current at a level of 10 W to the outer end of the needle for 1 second at three locations, 8, 10 and 12 mm from the meatus, in order to produce urethral strictures. Halofuginone was given for 7 days starting at the day of stricture formation, either orally at concentrations of 1 ppm and 5 ppm in the diet, or by injection of 0.03% Halofuginone dissolved in 2% lignocaine directly into the urethra once a day. After 21 days, the rats were sacrificed and the sutures were reopened to determine the level of urethral stricture formation, at which time biopsies of the tissue were taken. The tissue was sectioned so that histological studies could be performed. Briefly, the tissue samples were collected into phosphate-buffered saline (PBS) and fixed overnight in 4% paraformaldehyde in PBS at 4° C. Serial 5 μm sections were prepared after the samples had been dehydrated in graded ethanol solutions, cleared in chloroform and embedded in Paraplast. Differential staining of collagenous and non-collagenous proteins was performed with 0.1% Sirius red and 0.1% fast green as a counter-stain in picric acid. […]

collagen α1(I) gene = test: Northern blot of collagen α1(I) gene in urethral fibroblasts; format: cell-based, rat; settings: Northern blot analysis
Description: Next, total RNA was isolated using the guanidinium-thiocyanate-phenol technique (Chomczynski, P. and N. Sacchi, Anal. Biochem., 162:156, 1987). RNA was subjected to 1% agarose denaturing gel electrophoresis, followed by blotting onto a nylon filter (GeneScreen Plus, New England Nuclear, Boston, Mass., USA). The probe for the collagen α1(I) gene was labeled using the random primer procedure with a commercial kit (Boehringer, Germany). Hybridization was performed overnight at 40° C. in a solution containing 10% dextran sulfate, 1% SDS, 1 M NaCl, 40% formamide and […] denatured herring sperm DNA. Hybridization was followed by two 30-minute washes in 2×SSC (1×SSC contains 0.15 M NaCl and 0.015 M sodium citrate), 1% SDS, and two 20 minute washes in 1×SSC, 0.1% SDS. The filters were exposed to X-ray film (Agfa-Curix) at −70° C., using intensifying screens.

chickens = settings: in vivo; cited from earlier work

Q: Which results are given for `O=C(CC1NCCC[C@H]1O)Cn1cnc2cc(Br)c(Cl)cc2c1=O` (stereo partly shown) [Halofuginone]?
A: wound strength (skin wound): did not reduce wound strength; wound healing [1]: greater wound healing; stricture formation (urethral strictures; 1 ppm in the diet for 7 days with coagulation treatment): did not affect stricture formation; stricture formation (urethral strictures; 5 ppm in the diet for 7 days with coagulation treatment): did not have strictures; stricture formation (urethral strictures; locally administered (0.03% in 2% lignocaine into the urethra once a day, 7 days) with coagulation treatment): did not have strictures; stricture formation (urethral strictures; rat, in vivo): did not have any strictures; amount of collagen in the biopsies (collagen; given locally (FIG. 7D)): decreased the amount of collagen; amount of collagen in the biopsies (collagen; given orally (FIG. 7C)): decreased the amount of collagen; expression of the collagen α1(I) gene (collagen α1(I) gene): specifically decreased the expression; skin tearing (chickens): increased skin tearing
